Results from article PMC11995724, “Antibiotic target discovery by integrated phenotypic and activity-based profiling of electrophilic fragments” (Cell chemical biology, 2025).

Test: in vitro
Details: human, hek293t cells

Going from C=CC(=O)NC[C@@H]1C=C[C@H]2C[C@@H]1CO2 (racemic) [1-I03, rac-N-{[(1R,2S,5S)-6-oxabicyclo[3.2.1]oct-3-en-2-yl]methyl}prop-2-enamide] to C=CC(=O)NCC1CCN(C2CC2)CC1 [1-A07, N-[(1-cyclopropylpiperidin-4-yl)methyl]prop-2-enamide], the viability at 48 h, 25 µM rises from 78.1% to 80.2%.

First: C=CC(=O)N(Cc1cc2cccc(OC)c2o1)[C@@H]1C[C@H]2CC[C@@H]1O2 (racemic) [1-J13, rac-N-[(7-methoxy-1-benzofuran-2-yl)methyl]-N-[(1R,2S,4S)-7-oxabicyclo[2.2.1]heptan-2-yl]prop-2-enamide]
Second: C=CC(=O)N(CC)c1cccc(C)c1 [1-A10, N-ethyl-N-(3-methylphenyl)prop-2-enamide]
The viability at 48 h, 25 µM of the first is higher: 172% for the first, 76.6% for the second.

Compared with C=CC(=O)N(C)CC(=O)N1CCC[C@H](NC(=O)C(F)(F)F)[C@@H]1C (racemic) [2-A20, rac-N-methyl-N-{2-[(2R,3R)-2-methyl-3-(2,2,2-trifluoroacetamido)piperidin-1-yl]-2-oxoethyl}prop-2-enamide], C=CC(=O)NC1CCCN(C(=O)CCC(F)(F)F)C1 (stereo not shown) [1-B03, N-[1-(4,4,4-trifluorobutanoyl)piperidin-3-yl]prop-2-enamide] is higher in viability at 48 h, 25 µM: 96% for the first, 108% for the second.

Compared with C=CC(=O)N1CCC(C(=O)N[C@H]2CCO[C@H](c3ccccn3)C2)CC1 (racemic) [2-G15, rac-1-(prop-2-enoyl)-N-[(2R,4R)-2-(pyridin-2-yl)oxan-4-yl]piperidine-4-carboxamide], C=CC(=O)N1CCC(C(=O)N[C@H]2CCO[C@@H]2c2cccnc2)CC1 (racemic) [2-G20, rac-1-(prop-2-enoyl)-N-[(2R,3S)-2-(pyridin-3-yl)oxolan-3-yl]piperidine-4-carboxamide] is higher in viability at 48 h, 25 µM: 66.9% for the first, 92.2% for the second.

Compared with C=CC(=O)N[C@H]1CCCC[C@H]1c1ccnn1C (racemic) [2-G18, rac-N-[(1R,2S)-2-(1-methyl-1H-pyrazol-5-yl)cyclohexyl]prop-2-enamide], C=CC(=O)N1C[C@H](NC(C)=O)[C@@H](c2ccnn2C)C1 (racemic) [2-M16, rac-N-[(3R,4S)-4-(1-methyl-1H-pyrazol-5-yl)-1-(prop-2-enoyl)pyrrolidin-3-yl]acetamide] is lower in viability at 48 h, 25 µM: 103% for the first, 96% for the second.

Compared with C=CC(=O)N1CCC(C(=O)N[C@H]2CC[C@@H](CC#N)C2)CC1 (racemic) [2-G21, rac-N-[(1R,3S)-3-(cyanomethyl)cyclopentyl]-1-(prop-2-enoyl)piperidine-4-carboxamide], C=CC(=O)N1CCC(C(=O)N[C@H]2CCCCCC[C@H]2C(=O)OC)CC1 (racemic) [2-H06, rac-methyl (1R,2S)-2-[1-(prop-2-enoyl)piperidine-4-amido]cyclooctane-1-carboxylate] is higher in viability at 48 h, 25 µM: 71.9% for the first, 94.4% for the second.

First: C=CC(=O)N1CCC(C(=O)N[C@@H]2CC[C@H](O)C2)(c2ccccc2)CC1 (racemic) [2-H16, rac-N-[(1R,3S)-3-hydroxycyclopentyl]-4-phenyl-1-(prop-2-enoyl)piperidine-4-carboxamide]
Second: C=CC(=O)N1CCC(C(=O)N[C@H]2CC[C@@H]2O)(c2ccccc2)CC1 (racemic) [3-G08, rac-N-[(1R,2R)-2-hydroxycyclobutyl]-4-phenyl-1-(prop-2-enoyl)piperidine-4-carboxamide]
The viability at 48 h, 25 µM of the first is lower: 59.9% for the first, 104% for the second.

First: C=CC(=O)Nc1ccc(C(=O)N[C@H]2COC[C@@H]2OC)cc1 (racemic) [3-C08, rac-N-[(3R,4S)-4-methoxyoxolan-3-yl]-4-(prop-2-enamido)benzamide]
Second: C=CC(=O)Nc1ccoc1C(=O)c1ccc(C)cc1 [1-A04, N-[2-(4-methylbenzoyl)furan-3-yl]prop-2-enamide]
The viability at 48 h, 25 µM of the first is higher: 85.1% for the first, 0.123% for the second.

Compared with C=CC(=O)N(C)[C@H]1CS(=O)(=O)C[C@@H]1O (racemic) [3-C15, rac-N-[(3R,4R)-4-hydroxy-1,1-dioxo-1lambda6-thiolan-3-yl]-N-methylprop-2-enamide], C=CC(=O)N1CC(C(N)=O)Oc2ccccc21 (stereo not shown) [1-A09, 4-(prop-2-enoyl)-3,4-dihydro-2H-1,4-benzoxazine-2-carboxamide] is lower in viability at 48 h, 25 µM: 46% for the first, 24.7% for the second.

Compared with C=CC(=O)N[C@H]1CCO[C@@H]1c1ccnn1C(C)C (racemic) [3-K05, rac-N-[(2R,3R)-2-[1-(propan-2-yl)-1H-pyrazol-5-yl]oxolan-3-yl]prop-2-enamide], CC(Cl)C(=O)N[C@H]1CCC(=O)N[C@@H]1c1ccnn1C (mixture of isomers) [6-B14, rac-2-chloro-N-[(2R,3R)-2-(1-methyl-1H-pyrazol-5-yl)-6-oxopiperidin-3-yl]propanamide] is higher in viability at 48 h, 25 µM: 52.7% for the first, 92.4% for the second.

First: COCc1nnc([C@]23CC[C@H]2CCN3C(=O)C(C)Cl)o1 (mixture of isomers) [5-H15, rac-2-chloro-1-[(1R,5R)-1-[5-(methoxymethyl)-1,3,4-oxadiazol-2-yl]-2-azabicyclo[3.2.0]heptan-2-yl]propan-1-one]
Second: CC(Cl)C(=O)N1C[C@@H]2CCC[C@@]2(c2nc(-c3cnccn3)no2)C1 (mixture of isomers) [7-C03, rac-1-[(3aR,6aR)-3a-[3-(pyrazin-2-yl)-1,2,4-oxadiazol-5-yl]-octahydrocyclopenta[c]pyrrol-2-yl]-2-chloropropan-1-one]
The viability at 48 h, 25 µM of the first is lower: 108% for the first, 113% for the second.

Compared with CC(C)N1C(=O)C[C@H](NC(=O)CCl)[C@H]1c1ccc(Cl)c(F)c1 (racemic) [5-I11, rac-2-chloro-N-[(2R,3S)-2-(4-chloro-3-fluorophenyl)-5-oxo-1-(propan-2-yl)pyrrolidin-3-yl]acetamide], CCN1C(=O)CC[C@H](CNC(=O)C(C)Cl)[C@H]1c1cnn(C)c1 (mixture of isomers) [6-L13, rac-2-chloro-N-{[(2R,3S)-1-ethyl-2-(1-methyl-1H-pyrazol-4-yl)-6-oxopiperidin-3-yl]methyl}propanamide] is higher in viability at 48 h, 25 µM: 0.807% for the first, 100% for the second.

First: CC(Cl)C(=O)NC[C@H]1CCCN(C2CC2)[C@@H]1c1ccnn1C (mixture of isomers) [6-P20, rac-2-chloro-N-{[(2R,3S)-1-cyclopropyl-2-(1-methyl-1H-pyrazol-5-yl)piperidin-3-yl]methyl}propanamide]
Second: CC(Cl)C(=O)N[C@H]1CCO[C@@H]1c1nccn1-c1ccccc1 (mixture of isomers) [7-A12, rac-2-chloro-N-[(2R,3R)-2-(1-phenyl-1H-imidazol-2-yl)oxolan-3-yl]propanamide]
The viability at 48 h, 25 µM of the first is higher: 101% for the first, 93.1% for the second.

Going from CC(Cl)C(=O)N[C@H]1C[C@@H]1c1cnn(-c2ccccc2)c1 (mixture of isomers) [7-M08, rac-2-chloro-N-[(1R,2S)-2-(1-phenyl-1H-pyrazol-4-yl)cyclopropyl]propanamide] to CC(Cl)C(=O)N[C@H]1CN(Cc2ccccc2)C[C@@H]1c1ccccc1 (mixture of isomers) [7-N09, rac-N-[(3R,4S)-1-benzyl-4-phenylpyrrolidin-3-yl]-2-chloropropanamide], the viability at 48 h, 25 µM rises from 76.7% to 88.2%.

Compared with COC(=O)[C@H]1[C@@H](C(=O)CCl)C1(C)C (racemic) [10-A11, rac-methyl (1R,3S)-3-(2-chloroacetyl)-2,2-dimethylcyclopropane-1-carboxylate], CC(C)(C)OC(=O)[C@H]1C[C@@H]1C(=O)CCl (racemic) [10-C13, rac-tert-butyl (1R,2R)-2-(2-chloroacetyl)cyclopropane-1-carboxylate] is lower in viability at 48 h, 25 µM: 74.8% for the first, 1.62% for the second.

First: C=CC(=O)NCC1CCN(S(=O)(=O)C(F)(F)F)CC1 [1-A03, N-[(1-trifluoromethanesulfonylpiperidin-4-yl)methyl]prop-2-enamide]
Second: C=CC(=O)NCC1CCC2(CCCC2)O1 (stereo not shown) [1-A06, N-({1-oxaspiro[4.4]nonan-2-yl}methyl)prop-2-enamide]
The viability at 48 h, 25 µM of the first is lower: 83.3% for the first, 106% for the second.

Compared with C=CC(=O)NC1(c2ncon2)CC1 [1-A05, N-[1-(1,2,4-oxadiazol-3-yl)cyclopropyl]prop-2-enamide], C=CC(=O)NC1CCc2ccccc21 (stereo not shown) [1-A14, N-(2,3-dihydro-1H-inden-1-yl)prop-2-enamide] is higher in viability at 48 h, 25 µM: 68.7% for the first, 107% for the second.

Going from C=CC(=O)NC1CCCN(c2cc(N3CCOCC3)ncn2)C1 (stereo not shown) [1-A08, N-{1-[6-(morpholin-4-yl)pyrimidin-4-yl]piperidin-3-yl}prop-2-enamide] to C=CC(=O)N1CCCn2cccc2C12CCOCC2 [1-A22, 1-{2',3',4',5'-tetrahydrospiro[oxane-4,1'-pyrrolo[1,2-a][1,4]diazepin]-2'-yl}prop-2-en-1-one], the viability at 48 h, 25 µM rises from 103% to 109%.

First: C=CC(=O)Nc1cnn(CC(F)(F)F)c1 [1-A11, N-[1-(2,2,2-trifluoroethyl)-1H-pyrazol-4-yl]prop-2-enamide]
Second: C=CC(=O)NC(C)(Cn1cccn1)C(N)=O (stereo not shown) [1-A20, N-{1-carbamoyl-1-[(1H-pyrazol-1-yl)methyl]ethyl}prop-2-enamide]
The viability at 48 h, 25 µM of the first is lower: 91.8% for the first, 113% for the second.

Going from C=CC(=O)Nc1cc(C(=O)O)ccc1O [1-A12, 4-hydroxy-3-(prop-2-enamido)benzoic acid] to C=CC(=O)Nc1ccccc1CCC(N)=O [1-A18, N-[2-(2-carbamoylethyl)phenyl]prop-2-enamide], the viability at 48 h, 25 µM rises from 75.1% to 125%.

Compared with C=CC(=O)NCCc1csc(-c2ccccc2)n1 [1-A13, N-[2-(2-phenyl-1,3-thiazol-4-yl)ethyl]prop-2-enamide], C=CC(=O)NCc1cc(-c2ccco2)on1 [1-A21, N-{[5-(furan-2-yl)-1,2-oxazol-3-yl]methyl}prop-2-enamide] is higher in viability at 48 h, 25 µM: 88.5% for the first, 166% for the second.

Compared with C=CC(=O)Nc1cc(S(=O)(=O)N2CCCCCC2)ccc1OC [1-A15, N-[5-(azepane-1-sulfonyl)-2-methoxyphenyl]prop-2-enamide], C=CC(=O)NCC1(c2ccccc2Cl)CCCCC1 [1-A17, N-{[1-(2-chlorophenyl)cyclohexyl]methyl}prop-2-enamide] is higher in viability at 48 h, 25 µM: 1.58% for the first, 64.2% for the second.

Compared with C=CC(=O)Nc1cccc(-c2nnnn2C(C)C)c1 [1-A16, N-{3-[1-(propan-2-yl)-1H-1,2,3,4-tetrazol-5-yl]phenyl}prop-2-enamide], C=CC(=O)Nc1ccccc1CCSC [1-A19, N-{2-[2-(methylsulfanyl)ethyl]phenyl}prop-2-enamide] is lower in viability at 48 h, 25 µM: 98.3% for the first, 93.5% for the second.
